Experimental findings from US4127446A, “Process for producing antibiotics mimosamycin and chlorocarcins A, B and C” (priority 1975, dated 1978) are described below.

The test system of one series is tubercle bacilli. The experiment in a line: Activity of mimosamycin against tubercle bacilli (in words). In kind it is cell-based.
In series [1] the test system is highly streptomycin-resistant strains of human tubercle bacilli. In kind it is cell-based. The following applies: compared with normal strains of tubercle bacilli.
For a further series, the system named is gram-negative bacteria. The experiment in a line: Biological properties of mimosamycin: activity against gram-negative bacteria. In kind it is cell-based. To be noted: at a concentration of 50 μg/ml.
A short description of another series: Solubility. In kind it is physicochemical.
In the next series the test system is gram-positive bacteria. In words: Biological properties of mimosamycin: activity against gram-positive bacteria. The format is cell-based.
The test system of series [2] is Mycobacterium smegmatis ATCC607. In words: Antimicrobial activity of mimosamycin (Table 4). The following applies: Mycolicibacterium smegmatis, ATCC607, 48 h.
The test system of the next series is acid-fast bacteria. The experiment in a line: Biological properties of mimosamycin: activity against acid-fast bacteria. The format is cell-based.
The test system of a further series is fungi. In words: Biological properties of mimosamycin: activity against fungi. In kind it is cell-based. To be noted: at a concentration of 50 μg/ml.
In series [3] the test system is Mycobacterium bovis No. 10. The experiment in a line: microbe, parasite or virus in culture. The format is cell-based. To be noted: Mycobacterium tuberculosis variant bovis, NO.10, 672 h.

Converted amounts (≈) assume the structure as drawn.

For `COC1=C(C)C(=O)c2cc(=O)n(C)cc2C1=O` [Mimosamycin], the “activity against tubercle bacilli” value in the series on tubercle bacilli is on record as “specifically effective against tubercle bacilli”. In series [1], the “activity against highly streptomycin-resistant strains of human tubercle bacilli” value is recorded as “effective against highly streptomycin-resistant strains of human tubercle bacilli as is against normal strains of tubercle bacilli”. The “activity against gram-negative bacteria” value with gram-negative bacteria was “non-effective”. The Solubility result is “Sparingly soluble” in “Solubility” (in ethyl ether, n-hexane); “Easily soluble” in the series “Solubility” (in methanol, ethanol, chloroform, esters, acetone); “Insoluble” in the series “Solubility” (in water). Moreover, the “activity against gram-positive bacteria” value in the series with gram-positive bacteria was “active against gram-positive bacteria to a certain extent”. Moreover, the MIC in series [2] worked out at 25 µg/mL (≈ 107 µM); in series [3], 6.25 µg/mL (≈ 26.8 µM). For the same compound, the “activity against acid-fast bacteria” value with acid-fast bacteria is recorded as “active against acid-fast bacteria”. In addition, the activity against fungi result in the series with fungi is “non-effective”.
